# Data: ChEMBL document CHEMBL6096689, “Structure-Guided Development of ClpP Agonists with Potent Therapeutic Activities against Staphylococcus aureus Infection” (J Med Chem, 2025)
# pEC50: −log10 of the molar value. The source made the active and inactive calls. The rule behind the calls is not given here.
# What was measured:
# [1] = biological target: T1, ATP-dependent Clp protease proteolytic subunit, mitochondrial (Homo sapiens, UniProt Q16740); experiment: Induction of thermal stabilization of CLpP in HEK293T/17 at 10 times of MIC preincubated for 2 hrs followed by compound washout and incubated under 57.3 to 74.5 degreeC for 3 mins by CETSA; assay type: cell-based
# Staphylococcus aureus [2] = experiment: Antibacterial activity against Staphylococcus aureus USA300 infected in female ICR mouse peritonitis model assessed as reduction in bacterial load in peritoneal fluid at 25 to 100 mg/kg, ip pre-infected for 1 hrs followed by compound addition and measured after 5 days relative to control; assay type: functional; details: dose 25-100 mg/kg, time 5 day
# [3] = biological target: T2, ATP-dependent Clp protease proteolytic subunit (Staphylococcus aureus (strain NCTC 8325)) (UniProt Q2G036); experiment: Induction of thermal stabilization of CLpP in Staphylococcus aureus Newman at 10 times of MIC preincubated for 2 hrs followed by compound washout and incubated under 57.3 to 74.5 degreeC for 3 mins by CETSA
# T2 sequence (whole entry): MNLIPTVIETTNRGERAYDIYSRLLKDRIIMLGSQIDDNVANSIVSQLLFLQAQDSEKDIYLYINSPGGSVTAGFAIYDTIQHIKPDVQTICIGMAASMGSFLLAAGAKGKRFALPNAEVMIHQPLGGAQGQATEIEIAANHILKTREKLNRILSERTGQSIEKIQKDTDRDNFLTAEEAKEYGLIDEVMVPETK
# Staphylococcus aureus [4] = experiment: microbe, parasite or virus in culture; assay type: functional; details: time 18 hrs
# Description: Antibacterial activity against multidrug-resistant Staphylococcus aureus clinical isolate XJ025 assessed as inhibition of visible growth of bacteria incubated for 18 hrs by absorbance based analysis
# Staphylococcus aureus [5] = experiment: Antibacterial activity against CLpP overexpressing Staphylococcus aureus 8325-4 assessed as inhibition of visible growth of bacteria incubated for 18 hrs by absorbance based assay; assay type: functional, organism-based
# [6] = Toxicity in female ICR mouse model of peritonitis infected with oxacillin-resistant Staphylococcus aureus clinical isolate XJ049 assessed as effect on body weight at 50 mg/kg, ip pre-infected for 1 hrs followed by compound addition and measured after 5 days; assay type: organism-based; details: in vivo, 120 h, time 5 day
# [7] = biological target: T3, ATP-dependent Clp protease proteolytic subunit (Staphylococcus aureus (strain NCTC 8325), UniProt Q2G036); experiment: Agonist activity at Staphylococcus aureus ClpP extracted from Escherichia coli BL21 (DE3) cells using FITC-casein as substrate assessed as substrate hydrolysis preincubated for 60 mins followed by substrate addition and measured after 1 hrs by fluorescence based analysis
# T3 sequence (Q2G036 whole entry): T2 sequence (whole entry)
# [8] = biological target: T2, ATP-dependent Clp protease proteolytic subunit (Staphylococcus aureus (strain NCTC 8325)); experiment: Agonist activity at Staphylococcus aureus ClpP extracted from Escherichia coli BL21 (DE3) cells assessed as induction of ClpP-mediated staphylococcus aureus FtsZ degradation preincubated for 15 mins followed by FtsZ addition by SDS-PAGE analysis; details: filed as agonist, time <= 105.0 min
# Staphylococcus aureus [9] = experiment: Antibacterial activity against Staphylococcus aureus USA300 infected in Zebrafish infection model assessed as increase in zebrafish survival at 25 mg/kg pre-infected for 1 hrs followed by compound addition and measured after 5 days; assay type: functional, organism-based; details: time 5.0 day
# Staphylococcus aureus [10] = experiment: microbe, parasite or virus in culture; assay type: functional; details: time 18 hrs; remark: listed apart in the source
# Description: Antibacterial activity against multidrug-resistant Staphylococcus aureus clinical isolate XJ049 assessed as inhibition of visible growth of bacteria incubated for 18 hrs by absorbance based analysis
# Staphylococcus aureus [11] = experiment: Antibacterial activity against Staphylococcus aureus USA300 infected in Zebrafish infection model assessed as increase in zebrafish survival at 0.5 mg/kg pre-infected for 1 hrs followed by compound addition and measured after 5 days; assay type: functional, organism-based; details: time 5.0 day
# [12] = Therapeutic index, ratio of IC50 for HEK293T/17 cells to MIC for Staphylococcus aureus Newman; assay type: toxicity, cell-based; details: human, read-out: TI
# [13] = biological target: T1, ATP-dependent Clp protease proteolytic subunit, mitochondrial; experiment: Agonist activity at human ClpP extracted from Escherichia coli Rosetta (DE3) cells using alpha-casein as substrate assessed as substrate hydrolysis preincubated for 15 mins followed by substrate addition and measured after 2 hrs by SDS-PAGE analysis
# Staphylococcus aureus [14] = experiment: Antibacterial activity against Staphylococcus aureus USA300 infected in female ICR mouse peritonitis model assessed as reduction in bacterial load in spleen at 25 to 100 mg/kg, ip pre-infected for 1 hrs followed by compound addition and measured after 5 days relative to control; assay type: functional; details: dose 25-100 mg/kg, time 5 day
# Staphylococcus aureus [15] = experiment: Antibacterial activity against Staphylococcus aureus USA300 infected in female ICR mouse peritonitis model assessed as reduction in bacterial load in kidney at 25 to 100 mg/kg, ip pre-infected for 1 hrs followed by compound addition and measured after 5 days relative to control; assay type: functional; details: dose 25-100 mg/kg, time 5 day
# [16] = Agonist activity at Lactobacillus acidophilus ClpP using alpha-casein as substrate assessed as substrate hydrolysis preincubated for 15 mins followed by substrate addition and measured after 2 hrs by SDS-PAGE analysis
# Staphylococcus aureus [17] = experiment: microbe, parasite or virus in culture; assay type: functional; details: NRS-70, time 18 hrs
# Description: Antibacterial activity against methicillin-resistant Staphylococcus aureus NRS-70 assessed as inhibition of visible growth of bacteria incubated for 18 hrs by absorbance based analysis
# [18] = biological target: T2, ATP-dependent Clp protease proteolytic subunit (Staphylococcus aureus (strain NCTC 8325)); experiment: Induction of thermal stabilization of Staphylococcus aureus ClpP extracted from Escherichia coli BL21 (DE3) cells assessed as change in melting temperature at 10 uM incubated for 10 mins by DSF analysis
# [19] = Therapeutic index, ratio of IC50 for human ARH-77 cells to MIC for Staphylococcus aureus Newman; assay type: toxicity, cell-based; details: read-out: TI
# Staphylococcus aureus [20] = experiment: microbe, parasite or virus in culture; assay type: functional; details: time 18 hrs; remark: listed apart in the source
# Description: Antibacterial activity against multidrug-resistant Staphylococcus aureus clinical isolate XJ051 assessed as inhibition of visible growth of bacteria incubated for 18 hrs by absorbance based analysis
# Staphylococcus aureus [21] = experiment: microbe, parasite or virus in culture; assay type: functional; details: time 18 hrs; remark: listed apart in the source
# Description: Antibacterial activity against multidrug-resistant Staphylococcus aureus clinical isolate XJ052 assessed as inhibition of visible growth of bacteria incubated for 18 hrs by absorbance based analysis
# [22] = biological target: T1, ATP-dependent Clp protease proteolytic subunit, mitochondrial; experiment: Induction of thermal stabilization of human ClpP extracted from Escherichia coli Rosetta (DE3) cells assessed as change in melting temperature at 10 uM incubated for 10 mins by DSF analysis
# Staphylococcus aureus [23] = experiment: Antibacterial activity against Staphylococcus aureus USA300 infected in Zebrafish infection model assessed as increase in zebrafish survival at 5 mg/kg pre-infected for 1 hrs followed by compound addition and measured after 5 days; assay type: functional, organism-based; details: time 5.0 day
# Staphylococcus aureus [24] = experiment: Antibacterial activity against Staphylococcus aureus USA300 infected in female ICR mouse peritonitis model assessed as reduction in bacterial load in lung at 25 to 100 mg/kg, ip pre-infected for 1 hrs followed by compound addition and measured after 5 days relative to control; assay type: functional; details: dose 25-100 mg/kg, time 5 day
# Staphylococcus aureus [25] = experiment: Antibacterial activity against oxacillin-resistant Staphylococcus aureus clinical isolate XJ049 infected in female ICR mouse peritonitis model assessed as mouse survival at 50 mg/kg, ip pre-infected for 1 hrs followed by compound addition and measured after 5 days relative to control; assay type: functional; details: 120 h, time 5 day
# Staphylococcus aureus [26] = experiment: Antibacterial activity against Staphylococcus aureus 8325-4 harboring ClpP mutant assessed as inhibition of visible growth of bacteria incubated for 18 hrs by absorbance based assay; assay type: functional
# [27] = biological target: ATP-dependent Clp protease proteolytic subunit (Escherichia coli (strain K12), UniProt P0A6G7); experiment: Agonist activity at Escherichia coli ClpP using alpha-casein as substrate assessed as substrate hydrolysis preincubated for 15 mins followed by substrate addition and measured after 2 hrs by SDS-PAGE analysis
# Staphylococcus aureus [28] = experiment: Antibacterial activity against Staphylococcus aureus USA300 infected in female ICR mouse peritonitis model assessed as reduction in bacterial load in liver at 25 to 100 mg/kg, ip pre-infected for 1 hrs followed by compound addition and measured after 5 days relative to control; assay type: functional; details: dose 25-100 mg/kg, time 5 day
# T1 sequence (Q16740 whole entry): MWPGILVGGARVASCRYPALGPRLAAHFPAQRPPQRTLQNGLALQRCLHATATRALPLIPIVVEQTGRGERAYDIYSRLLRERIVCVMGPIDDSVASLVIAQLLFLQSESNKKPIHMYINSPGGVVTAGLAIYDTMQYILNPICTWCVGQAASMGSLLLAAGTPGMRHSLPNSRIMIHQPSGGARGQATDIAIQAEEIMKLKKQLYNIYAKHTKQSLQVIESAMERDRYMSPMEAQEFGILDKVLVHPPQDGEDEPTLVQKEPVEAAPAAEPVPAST
# Chain of ATP-dependent Clp protease proteolytic subunit (Escherichia coli (strain K12), UniProt P0A6G7) (P0A6G7 whole entry): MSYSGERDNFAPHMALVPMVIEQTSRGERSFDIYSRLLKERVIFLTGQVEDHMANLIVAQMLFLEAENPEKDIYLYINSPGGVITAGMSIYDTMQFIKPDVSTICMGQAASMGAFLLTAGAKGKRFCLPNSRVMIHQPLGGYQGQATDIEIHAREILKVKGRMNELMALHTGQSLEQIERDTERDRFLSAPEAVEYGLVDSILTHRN
compound,measurement,setting,value
CC[C@H](C)[C@H]1C(=O)N(Cc2ccc(OC)c3ccccc23)C[C@@H]2N(C(=O)NCCCC(F)(F)F)CCC(=O)N12,Activity,[1],Active; Minimal Effect On Thermal Stability Observed
same,Activity,Staphylococcus aureus [2],2 log10CFU/g
same,Activity,[3],Active
same,MIC,Staphylococcus aureus [4],0.13 µg/mL
same,Activity,Staphylococcus aureus [5],Active
same,Activity,[6],Non-toxic
same,pEC50,[7],6.48
same,Activity,[8],Time-dependent-effect
same,Activity,Staphylococcus aureus [9],Active
same,MIC,Staphylococcus aureus [10],0.13 µg/mL
same,Activity,Staphylococcus aureus [11],Active; Significant Improvement Observed Compared To 0.5 Mg/Kg Of Vancomycin
same,selectivity ratio,[12],190
same,pEC50,[13],5.44
same,Activity,Staphylococcus aureus [14],2 log10CFU/g
same,Activity,Staphylococcus aureus [15],2 log10CFU/g
same,pEC50,[16],< 4.00
same,MIC,Staphylococcus aureus [17],0.06 µg/mL
same,ΔTm,[18],22.8 °C
same,selectivity ratio,[19],206
same,MIC,Staphylococcus aureus [20],0.03 µg/mL
same,MIC,Staphylococcus aureus [21],0.13 µg/mL
same,ΔTm,[22],18 °C
same,Activity,Staphylococcus aureus [23],Active; Comparable To 25 Mg/Kg Of (R)-Zg197
same,Activity,Staphylococcus aureus [24],2 log10CFU/g
same,survival at 50 mg/kg,Staphylococcus aureus [25],100%
same,MIC,Staphylococcus aureus [26],> 128 µg/mL
same,pEC50,[27],< 4.00
same,Activity,Staphylococcus aureus [28],2 log10CFU/g
